The results in this text go back to ChEMBL document CHEMBL1201862, “PubChem BioAssay data set” (2004).

The structures appear in SMILES notation. Active and inactive are the calls of the source.

The target of assay [1] is T1, Nucleotide-binding oligomerization domain-containing protein 1 (Homo sapiens, UniProt Q9Y239).
T1 sequence (Q9Y239 whole entry): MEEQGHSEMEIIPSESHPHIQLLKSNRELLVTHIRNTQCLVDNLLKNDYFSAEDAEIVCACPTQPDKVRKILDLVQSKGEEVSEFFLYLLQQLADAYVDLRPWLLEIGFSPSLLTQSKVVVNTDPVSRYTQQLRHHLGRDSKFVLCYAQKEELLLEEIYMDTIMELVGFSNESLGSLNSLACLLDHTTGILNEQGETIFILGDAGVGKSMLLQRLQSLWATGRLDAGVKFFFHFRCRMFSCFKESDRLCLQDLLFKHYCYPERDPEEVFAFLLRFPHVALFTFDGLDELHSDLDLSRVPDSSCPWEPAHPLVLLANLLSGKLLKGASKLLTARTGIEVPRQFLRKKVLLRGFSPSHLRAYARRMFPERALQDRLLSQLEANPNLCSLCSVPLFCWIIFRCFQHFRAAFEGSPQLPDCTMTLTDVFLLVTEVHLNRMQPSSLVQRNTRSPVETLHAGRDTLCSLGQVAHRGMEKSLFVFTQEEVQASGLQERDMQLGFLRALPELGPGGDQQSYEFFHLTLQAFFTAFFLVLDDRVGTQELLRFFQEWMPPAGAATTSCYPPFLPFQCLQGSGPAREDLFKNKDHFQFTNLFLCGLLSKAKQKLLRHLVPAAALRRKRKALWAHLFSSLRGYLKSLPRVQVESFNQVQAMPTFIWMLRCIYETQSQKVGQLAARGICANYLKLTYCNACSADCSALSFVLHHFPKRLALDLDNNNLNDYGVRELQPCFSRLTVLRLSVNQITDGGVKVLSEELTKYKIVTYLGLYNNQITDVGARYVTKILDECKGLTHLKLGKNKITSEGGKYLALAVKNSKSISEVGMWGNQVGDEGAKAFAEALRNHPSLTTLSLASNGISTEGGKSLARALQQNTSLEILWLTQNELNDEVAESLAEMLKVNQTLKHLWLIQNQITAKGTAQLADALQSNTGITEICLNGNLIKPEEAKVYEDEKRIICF
The assay can be described thus: NOD1 signaling inhibitors, SAR follow-up, revised (AID 2333). Type of assay: functional.

The subject of another assay is HEK293. Nature of the assay: cells. As to conditions: Homo sapiens.
For another assay, the target named is Tumor necrosis factor (Homo sapiens, UniProt P01375). Nature of the assay: TNFa-triggered NF-kB activation inhibitors, SAR follow-up, cell-based, revised (AID 2337). The assay is classed as functional.
Assay [2] has as its target Nucleotide-binding oligomerization domain-containing protein 2 (Homo sapiens, UniProt Q9HC29). Nature of the assay: PubChem AID 2334. Type of assay: functional.
The target of assay [3] is T2, Short transient receptor potential channel 4 (Mus musculus, UniProt Q9QUQ5).
T2 sequence (Q9QUQ5 whole entry): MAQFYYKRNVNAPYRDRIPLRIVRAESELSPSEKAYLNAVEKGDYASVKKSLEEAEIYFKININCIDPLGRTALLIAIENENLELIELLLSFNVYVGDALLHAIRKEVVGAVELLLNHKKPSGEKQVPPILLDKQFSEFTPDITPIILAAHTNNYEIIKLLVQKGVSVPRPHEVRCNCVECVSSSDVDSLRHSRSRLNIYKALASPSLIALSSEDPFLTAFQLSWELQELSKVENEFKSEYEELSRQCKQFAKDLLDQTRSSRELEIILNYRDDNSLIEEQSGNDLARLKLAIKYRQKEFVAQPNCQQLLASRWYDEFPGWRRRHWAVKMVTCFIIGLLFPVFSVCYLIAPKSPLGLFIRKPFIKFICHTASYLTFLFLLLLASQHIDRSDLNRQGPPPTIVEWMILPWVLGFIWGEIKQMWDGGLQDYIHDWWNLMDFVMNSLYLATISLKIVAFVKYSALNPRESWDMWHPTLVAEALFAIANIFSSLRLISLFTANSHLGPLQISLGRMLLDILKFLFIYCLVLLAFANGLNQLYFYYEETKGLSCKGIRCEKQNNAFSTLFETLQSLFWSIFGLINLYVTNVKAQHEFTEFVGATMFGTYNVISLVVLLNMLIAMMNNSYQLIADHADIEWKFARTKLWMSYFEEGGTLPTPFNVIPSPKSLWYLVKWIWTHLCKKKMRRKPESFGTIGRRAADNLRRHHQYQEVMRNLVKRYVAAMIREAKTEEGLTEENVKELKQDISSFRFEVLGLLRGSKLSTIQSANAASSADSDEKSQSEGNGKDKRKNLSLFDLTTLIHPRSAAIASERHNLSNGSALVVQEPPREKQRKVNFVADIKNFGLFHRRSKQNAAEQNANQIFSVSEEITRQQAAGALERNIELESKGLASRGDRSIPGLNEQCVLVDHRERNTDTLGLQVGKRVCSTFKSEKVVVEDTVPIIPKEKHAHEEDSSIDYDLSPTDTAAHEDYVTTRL
Nature of the assay: mouse TRPC4 channel inhibitors, dose response, cell-based, HEK293 TRPC4/mu-opioid, Fluo-4 calcium (AID 434942).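 Also: potency of inhibitors blocking the TRPC4 calcium response.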 Type of assay: functional.

Assay [4] is described as follows: Cytotoxicity screening for potential Inhibitors of Bacterial Capsule Biogenesis. [Related pubchem assays (depositor defined):AID488970]. Type of assay: functional.
The target of assay [5] is 26S proteasome non-ATPase regulatory subunit 14 (Homo sapiens, UniProt O00487). The assay can be described thus: inhibition of proteasome subunit RPN11 – biochemical, fluorescence polarization, uHTS hits, confirmation (AID 602368). Type of assay: functional.
Assay [6] deals with 72 kDa type IV collagenase (Homo sapiens, UniProt P08253). Nature of the assay: Dose Response validation of uHTS RPN11 inhibitor hits using a MMP-2 Fluorescence assay. The assay is classed as functional.
Assay [7] has as its target T3, Endoribonuclease toxin MazF (Escherichia coli K-12, UniProt P0AE70).
T3 sequence (P0AE70 whole entry): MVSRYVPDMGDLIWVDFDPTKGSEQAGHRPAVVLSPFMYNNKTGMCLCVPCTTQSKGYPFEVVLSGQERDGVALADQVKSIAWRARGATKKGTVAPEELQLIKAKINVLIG
The assay can be described thus: fluorescent RNA oligo signal without MazF, dose response, counter-screen for MazEF activator project, biochemical, fluorescence, single-stranded RNase substrate (AID 588502). Type of assay: functional.

In another assay the target is Beta-galactosidase (Escherichia coli, UniProt Q8VNN2). Nature of the assay: beta-galactosidase enzyme inhibitors and activators, dose response, artefact control for CCR6 antagonist project, biochemical, E. coli enzyme, set 3 (AID 504712). Type of assay: functional.
The target of assay [8] is C-C chemokine receptor type 6 (Homo sapiens, UniProt P51684). The assay can be described thus: CCR6 receptor antagonists, dose response, cell-based, luminescent beta-arrestin readout (AID 504728). The assay is classed as functional.
A further assay addresses Prothrombin (Bos taurus, UniProt P00735). The assay can be described thus: thrombin inhibition, dose response, biochemical, fluorescence polarization, uHTS hits (AID 602369). Type of assay: functional.
Assay [9] has as its target T3, Endoribonuclease toxin MazF. Nature of the assay: MazF toxin RNase activators, dose response, biochemical, fluorescence, single-stranded RNA substrate, uHTS hits (AID 588481). Type of assay: functional.
Assay [10] addresses Dual specificity protein phosphatase 3 (Homo sapiens, UniProt P51452). Nature of the assay: VHR1 inhibitor Ki determination, SAR follow-up, biochemical, colorimetric (AID 2004).
The target in a further assay is X-box-binding protein 1 (Homo sapiens, UniProt P17861). The assay is classed as functional, Cricetulus griseus.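 Also: confirmatory dose-response counter-screen serving a CHOP assay.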
In assay [11] the target is T4, High affinity choline transporter 1 (Homo sapiens, UniProt Q9GZV3).
T4 sequence (Q9GZV3 whole entry): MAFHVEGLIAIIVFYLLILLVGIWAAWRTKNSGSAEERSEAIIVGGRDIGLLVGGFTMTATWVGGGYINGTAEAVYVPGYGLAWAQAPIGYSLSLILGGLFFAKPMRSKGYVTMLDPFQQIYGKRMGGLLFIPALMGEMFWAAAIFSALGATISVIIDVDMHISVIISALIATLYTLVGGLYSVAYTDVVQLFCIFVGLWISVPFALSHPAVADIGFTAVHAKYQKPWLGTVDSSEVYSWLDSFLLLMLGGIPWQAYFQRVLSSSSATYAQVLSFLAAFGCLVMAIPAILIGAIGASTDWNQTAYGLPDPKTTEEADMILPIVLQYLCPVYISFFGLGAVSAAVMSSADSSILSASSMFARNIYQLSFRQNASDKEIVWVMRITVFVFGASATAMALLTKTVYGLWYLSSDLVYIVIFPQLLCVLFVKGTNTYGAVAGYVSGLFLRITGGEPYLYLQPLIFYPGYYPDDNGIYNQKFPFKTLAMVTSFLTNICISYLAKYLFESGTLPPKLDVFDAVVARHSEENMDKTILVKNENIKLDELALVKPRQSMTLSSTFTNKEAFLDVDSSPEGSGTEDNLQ
The assay can be described thus: CHT inhibitors, dose response, cell-based, 5-point CRC, membrane potential dye (AID 504840). The assay is classed as functional.

A short description of assay [12]: nonselective inhibitors of cellular cAMP signaling, dose response, counter-screen for MC4R biased antagonist project, cell-based, TR-FRET cAMP detection (AID 602305).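 Also: U2OS cells stimulated with forskolin near its EC80 as the cAMP inducer; potency is for inhibition of forskolin-stimulated cAMP signaling.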 Type of assay: functional.
For a further assay, the target named is Melanocortin receptor 4 (Homo sapiens, UniProt P32245). The assay can be described thus: MC4R antagonist potency on cAMP, dose response, cell-based, TR-FRET, biased antagonists (AID 602298).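 Also: antagonist potency against agonist-stimulated cAMP production.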 Type of assay: functional.
Assay [13] concerns the target Cyclin-dependent kinase 5/CDK5 activator 1 (Homo sapiens, UniProt Q00535). Nature of the assay: CDK5/p35 kinase inhibitors, dose response, biochemical, cherry-picked samples, set 2 (AID 504545).
The target of assay [14] is T5, Voltage-gated N-type calcium channel alpha-1B subunit/Amyloid beta A4 precursor protein-binding family A member 1 (Homo sapiens, UniProt Q00975+Q02410). The assay can be described thus: disruptors of Mint-PDZ/N-type channel peptide interaction – biochemical, HTRF, set 2, SAR follow-up (AID 434980). The assay is classed as functional.
The test system of a further assay is Salmon testes DNA. Nature of the assay: DNA intercalators displacing acridine orange, dose response, artefact control for KSHV LANA DNA-binding inhibitor project, biochemical, fluorescence polarization, cherry-picked samples, set 2 (AID 504727). Also on record: species or system Salmonidae.
A further assay addresses Keap1/Nrf2 (Homo sapiens, UniProt Q14145). Nature of the assay: Keap1-Nrf2 protein-protein interaction inhibitors, dose response, biochemical, fluorescence polarization, cherry-picked samples (AID 588683).
The next assay deals with ORF 73 (Human herpesvirus 8, UniProt O40947). The assay can be described thus: inhibitors of C-LANA binding to LBS DNA, dose response, biochemical, fluorescence polarization, cherry-picked samples (AID 504725).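 Also: fluorescence polarization of a labeled DNA duplex reporting LANA DNA binding; potency is for inhibitors that block LANA binding to the DNA.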 Also on record: species or system Human gammaherpesvirus 8.
The next assay concerns the target Cytochrome P450 2C19 (Homo sapiens, UniProt P33261). The assay can be described thus: Cytochrome panel assay with activity outcomes. Panel member name: p450-cyp2c19 Compounds with AC50 equal or less than 10 uM are considered active. Type of assay: functional. As to conditions: read-out: AC50.
The next assay concerns the target Large T antigen (Simian virus 40, UniProt P03070). Type of assay: functional, Betapolyomavirus macacae.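 Also: Confirmatory-stage PubChem screen for compounds that inhibit SV40 T antigen.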
For assay [15], the target named is T5, Voltage-gated N-type calcium channel alpha-1B subunit/Amyloid beta A4 precursor protein-binding family A member 1. Type of assay: protein assay.
Assay [16] has the same target. Nature of the assay: disruptors of Mint-PDZ/N-type channel peptide interaction – biochemical, HTRF, SAR follow-up (AID 2489). The assay is classed as functional.
A further assay addresses Cytochrome P450 2C9 (Homo sapiens, UniProt P11712).
Assay [17] has as its target T5, Voltage-gated N-type calcium channel alpha-1B subunit/Amyloid beta A4 precursor protein-binding family A member 1. The assay is classed as protein assay. This is another data set of the same source.
Assay [18] deals with Scavenger receptor class B member 1 (Mus musculus, UniProt Q61009). The assay can be described thus: inhibitors of SR-BI mediated HDL lipid uptake, dose response, ldlA[mSR-BI] cells, fluorescence, cherry pick (AID 493194).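 Also: cellular uptake of fluorescent DiI-labeled HDL measured as cell fluorescence.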 The assay is classed as functional, cell-based.

T5 sequence (Q00975 whole entry): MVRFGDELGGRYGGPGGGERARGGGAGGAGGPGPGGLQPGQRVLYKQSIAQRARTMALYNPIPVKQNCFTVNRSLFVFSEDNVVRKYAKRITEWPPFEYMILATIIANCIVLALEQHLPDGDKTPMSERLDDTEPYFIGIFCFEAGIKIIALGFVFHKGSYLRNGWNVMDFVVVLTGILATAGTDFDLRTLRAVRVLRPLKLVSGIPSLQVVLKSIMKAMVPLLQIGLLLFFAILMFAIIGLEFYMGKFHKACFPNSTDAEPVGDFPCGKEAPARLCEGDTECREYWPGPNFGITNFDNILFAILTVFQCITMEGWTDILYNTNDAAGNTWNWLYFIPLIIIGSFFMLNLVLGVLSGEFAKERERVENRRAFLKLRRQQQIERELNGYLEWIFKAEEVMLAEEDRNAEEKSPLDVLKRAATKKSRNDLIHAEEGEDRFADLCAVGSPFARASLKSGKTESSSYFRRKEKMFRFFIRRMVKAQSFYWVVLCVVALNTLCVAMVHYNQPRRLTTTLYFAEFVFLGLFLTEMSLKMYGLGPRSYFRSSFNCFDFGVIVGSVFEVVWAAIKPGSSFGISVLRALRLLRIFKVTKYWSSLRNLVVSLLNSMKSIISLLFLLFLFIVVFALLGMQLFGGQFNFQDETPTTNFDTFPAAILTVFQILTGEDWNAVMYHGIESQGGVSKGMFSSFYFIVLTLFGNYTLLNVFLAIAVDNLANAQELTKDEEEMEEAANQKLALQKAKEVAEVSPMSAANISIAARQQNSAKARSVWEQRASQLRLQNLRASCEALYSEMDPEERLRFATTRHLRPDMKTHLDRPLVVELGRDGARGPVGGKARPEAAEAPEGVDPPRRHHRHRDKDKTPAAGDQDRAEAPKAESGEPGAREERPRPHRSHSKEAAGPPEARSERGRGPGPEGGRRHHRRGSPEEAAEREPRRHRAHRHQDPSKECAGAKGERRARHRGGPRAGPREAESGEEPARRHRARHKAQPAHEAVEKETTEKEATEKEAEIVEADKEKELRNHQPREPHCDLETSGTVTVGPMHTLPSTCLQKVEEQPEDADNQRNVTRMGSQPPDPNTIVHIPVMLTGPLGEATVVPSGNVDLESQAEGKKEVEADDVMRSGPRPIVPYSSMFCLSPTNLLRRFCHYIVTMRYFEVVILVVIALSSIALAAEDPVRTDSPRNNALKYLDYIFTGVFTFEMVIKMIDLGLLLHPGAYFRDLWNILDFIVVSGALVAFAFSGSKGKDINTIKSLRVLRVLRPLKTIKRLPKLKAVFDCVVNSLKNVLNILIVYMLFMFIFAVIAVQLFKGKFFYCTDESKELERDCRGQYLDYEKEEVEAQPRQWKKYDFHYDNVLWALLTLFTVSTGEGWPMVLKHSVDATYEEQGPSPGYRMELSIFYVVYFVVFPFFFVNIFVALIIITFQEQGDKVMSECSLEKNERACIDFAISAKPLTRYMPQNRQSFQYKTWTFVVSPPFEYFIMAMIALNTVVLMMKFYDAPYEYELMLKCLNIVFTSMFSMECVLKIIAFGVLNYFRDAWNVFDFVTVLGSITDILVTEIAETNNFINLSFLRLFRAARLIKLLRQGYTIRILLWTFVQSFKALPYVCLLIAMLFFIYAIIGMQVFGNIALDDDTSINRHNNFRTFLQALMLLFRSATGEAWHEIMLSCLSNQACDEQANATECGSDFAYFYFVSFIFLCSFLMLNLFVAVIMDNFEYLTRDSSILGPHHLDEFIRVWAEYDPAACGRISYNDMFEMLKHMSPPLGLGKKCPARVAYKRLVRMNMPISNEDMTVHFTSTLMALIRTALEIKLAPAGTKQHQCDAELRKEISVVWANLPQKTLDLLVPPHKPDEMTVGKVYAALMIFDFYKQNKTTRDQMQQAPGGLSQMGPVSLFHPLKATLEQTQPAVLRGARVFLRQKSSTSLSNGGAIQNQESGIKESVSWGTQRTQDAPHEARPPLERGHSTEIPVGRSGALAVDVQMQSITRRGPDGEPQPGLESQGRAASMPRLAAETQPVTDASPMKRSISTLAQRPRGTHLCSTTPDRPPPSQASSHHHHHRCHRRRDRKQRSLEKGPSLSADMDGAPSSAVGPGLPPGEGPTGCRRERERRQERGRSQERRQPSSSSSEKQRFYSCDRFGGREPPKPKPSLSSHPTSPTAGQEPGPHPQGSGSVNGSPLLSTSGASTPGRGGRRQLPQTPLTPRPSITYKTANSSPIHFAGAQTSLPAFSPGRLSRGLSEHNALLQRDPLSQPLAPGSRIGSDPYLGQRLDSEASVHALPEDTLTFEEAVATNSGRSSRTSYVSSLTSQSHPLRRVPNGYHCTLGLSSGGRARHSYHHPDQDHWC
T5 sequence (Q02410 whole entry): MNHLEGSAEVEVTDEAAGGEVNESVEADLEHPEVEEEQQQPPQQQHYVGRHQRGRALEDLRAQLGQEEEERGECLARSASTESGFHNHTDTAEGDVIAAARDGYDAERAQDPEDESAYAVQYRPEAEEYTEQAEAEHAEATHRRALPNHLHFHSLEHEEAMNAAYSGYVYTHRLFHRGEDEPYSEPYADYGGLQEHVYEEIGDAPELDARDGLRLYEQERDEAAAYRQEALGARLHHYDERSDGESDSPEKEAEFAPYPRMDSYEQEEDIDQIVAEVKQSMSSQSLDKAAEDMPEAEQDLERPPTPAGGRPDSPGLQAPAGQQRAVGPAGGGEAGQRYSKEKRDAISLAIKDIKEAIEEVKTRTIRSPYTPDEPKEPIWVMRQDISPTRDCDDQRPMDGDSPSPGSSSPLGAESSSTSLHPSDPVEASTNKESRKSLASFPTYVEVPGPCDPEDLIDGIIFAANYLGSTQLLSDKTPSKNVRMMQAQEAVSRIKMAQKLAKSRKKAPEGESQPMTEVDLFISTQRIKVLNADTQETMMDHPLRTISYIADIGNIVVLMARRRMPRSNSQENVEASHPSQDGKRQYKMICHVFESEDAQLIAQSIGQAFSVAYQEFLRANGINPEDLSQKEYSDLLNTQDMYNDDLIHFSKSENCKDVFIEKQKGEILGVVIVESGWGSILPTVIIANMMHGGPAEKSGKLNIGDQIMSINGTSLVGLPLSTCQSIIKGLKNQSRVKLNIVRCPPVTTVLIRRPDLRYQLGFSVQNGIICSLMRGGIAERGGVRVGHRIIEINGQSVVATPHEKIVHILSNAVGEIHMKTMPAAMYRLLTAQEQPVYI
Dual specificity protein phosphatase 3, sequence (P51452 whole entry): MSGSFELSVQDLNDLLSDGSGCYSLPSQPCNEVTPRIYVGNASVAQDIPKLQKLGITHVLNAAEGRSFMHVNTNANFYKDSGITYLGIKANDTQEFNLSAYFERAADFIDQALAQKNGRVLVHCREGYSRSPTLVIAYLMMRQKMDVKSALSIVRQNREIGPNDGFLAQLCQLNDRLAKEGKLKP
Nucleotide-binding oligomerization domain-containing protein 2, sequence (Q9HC29 whole entry, the tested form may be a part): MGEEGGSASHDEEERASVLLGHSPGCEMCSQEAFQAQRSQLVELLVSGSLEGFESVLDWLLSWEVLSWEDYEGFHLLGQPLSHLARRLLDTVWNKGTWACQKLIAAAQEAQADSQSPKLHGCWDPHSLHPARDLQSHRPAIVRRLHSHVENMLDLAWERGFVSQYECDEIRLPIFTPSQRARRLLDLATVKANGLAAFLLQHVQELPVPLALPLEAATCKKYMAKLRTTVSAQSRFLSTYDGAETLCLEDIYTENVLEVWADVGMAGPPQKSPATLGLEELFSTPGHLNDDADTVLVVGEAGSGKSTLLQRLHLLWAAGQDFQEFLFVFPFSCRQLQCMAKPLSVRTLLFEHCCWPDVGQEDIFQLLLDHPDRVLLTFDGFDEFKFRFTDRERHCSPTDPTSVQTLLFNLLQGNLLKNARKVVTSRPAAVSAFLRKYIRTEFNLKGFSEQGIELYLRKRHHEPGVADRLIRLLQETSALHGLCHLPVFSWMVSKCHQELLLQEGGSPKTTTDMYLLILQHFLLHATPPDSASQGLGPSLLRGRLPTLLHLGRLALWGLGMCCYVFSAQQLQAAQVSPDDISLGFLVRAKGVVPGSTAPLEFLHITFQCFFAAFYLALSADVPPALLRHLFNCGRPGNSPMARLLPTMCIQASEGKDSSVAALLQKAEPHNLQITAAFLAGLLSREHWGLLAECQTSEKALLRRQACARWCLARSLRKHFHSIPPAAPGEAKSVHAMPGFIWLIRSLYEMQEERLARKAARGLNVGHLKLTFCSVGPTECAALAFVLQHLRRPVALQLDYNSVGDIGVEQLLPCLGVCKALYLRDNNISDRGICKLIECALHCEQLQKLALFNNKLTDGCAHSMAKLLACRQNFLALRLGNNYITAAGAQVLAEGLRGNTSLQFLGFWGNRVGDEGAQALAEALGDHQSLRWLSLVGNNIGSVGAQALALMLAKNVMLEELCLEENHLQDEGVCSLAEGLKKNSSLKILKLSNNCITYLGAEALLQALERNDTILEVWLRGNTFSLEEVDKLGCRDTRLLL
Melanocortin receptor 4, sequence (P32245 whole entry): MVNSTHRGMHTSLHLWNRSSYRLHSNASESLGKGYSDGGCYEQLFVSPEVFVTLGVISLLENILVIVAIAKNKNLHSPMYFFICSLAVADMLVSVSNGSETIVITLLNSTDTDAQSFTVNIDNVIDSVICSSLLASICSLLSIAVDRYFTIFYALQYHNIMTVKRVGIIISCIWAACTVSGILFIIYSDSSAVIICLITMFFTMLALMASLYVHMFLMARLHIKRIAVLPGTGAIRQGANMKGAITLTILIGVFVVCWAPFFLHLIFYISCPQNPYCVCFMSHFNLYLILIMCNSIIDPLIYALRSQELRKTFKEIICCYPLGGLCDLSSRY
X-box-binding protein 1, sequence (P17861 whole entry): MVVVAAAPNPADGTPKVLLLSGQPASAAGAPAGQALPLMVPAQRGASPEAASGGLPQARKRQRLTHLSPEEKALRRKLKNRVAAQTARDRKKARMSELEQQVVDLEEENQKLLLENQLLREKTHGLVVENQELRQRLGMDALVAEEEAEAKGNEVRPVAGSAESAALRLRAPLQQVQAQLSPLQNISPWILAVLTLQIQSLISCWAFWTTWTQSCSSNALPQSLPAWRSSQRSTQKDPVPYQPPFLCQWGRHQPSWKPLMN

Regarding `O=C(Nc1sc2c(c1C(=O)O)CCCC2)C(=O)N1CCOCC1`, the IC50 (in [1]; with HEK293; at Tumor necrosis factor; in assay [2]) was > 20 µM (inactive) in each case.
Consider `CCOc1ccc(-c2cc(NC(=O)c3c(F)cccc3F)c(C(=O)O)s2)cc1`, for which, in assay [3], the EC50 was 2.99 µM (active). For the same molecule, the CC50 in [4] was 66.7 µM (active).
Consider `COc1ccccc1C(=O)/N=C(\N)Nc1nc2ccccc2o1`, for which the IC50 in assay [5] was 38.3 µM (active); in [6] it was > 100 µM (inactive); at Beta-galactosidase it was > 66.6 µM (inactive); in [8], > 66.6 µM (inactive); on Prothrombin, 60.9 µM (active). The EC50 in assay [7] and in assay [9] was > 99 µM (inactive) in each case.
As for `O=C1NC(=S)/C(=C\c2ccc(-c3ccc([N+](=O)[O-])cc3)o2)S1`, the Ki in [10] is 1.86 µM (active).
As for `COc1cccc(C(=O)C(C#N)=C(SC)SC)c1`, at X-box-binding protein 1, the “Absolute IC50 (XBP1)” value came out at 10 µM. The IC50 was 11.2 µM (active) in [11], > 64.6 µM (inactive) in [12] and > 64.6 µM (inactive) on Melanocortin receptor 4.
Consider `CC(C)n1cnc2c(Nc3cccc(Cl)c3)nc(NCCCO)nc21`, for which the AC50 in [13] was 2.59 µM (active).
For `CN1CCCC1CCNC(=O)c1cc(-c2ccco2)nc2ccccc12` (stereo not given), the IC50 in assay [14] was 24.5 µM (active).
Consider `Cc1oc2cc(O)ccc2c(=O)c1-c1nncn1-c1ccccc1`, for which the AC50 with Salmon testes DNA was 49.4 µM (active); on Keap1/Nrf2, 43.4 µM (active); on ORF 73, 26.6 µM (active).
Regarding `Nc1ccc(-c2nc3ccc(N)c(Cl)c3[nH]2)cc1`, the AC50 was 6.31 µM (inconclusive) on Cytochrome P450 2C19 and 0.112 µM (inconclusive) on Cytochrome P450 2C9. Also, the IC50 was 7.64 µM (active) at Large T antigen, 9.64 µM (active) in assay [15], 11.6 µM (active) in assay [16] and 1.94 µM (active) in assay [17].
In the case of `Cc1cc(C(=O)C(C)OC(=O)C2=NNC(=O)CC2)c(C)n1-c1ccc(OC(F)F)cc1` (stereo not given), in [18], the AC50 was 3.29 µM (active).
